The Kd is the concentration at which binding is half-saturated.

We go through three molecules from publication PMC11991097 (2025).

Assay [1] concerns Del-1 (DNA, aptamer) ACCGACCGTGCTGGACTCTAAGGTGGAGTTATAGGCTTACTGCCACGTCAGTATGAGCGAGCGTTGCG
Kind of assay: magnetic bead elution, ssDNA absorbance, nonlinear fit. The settings on record: PBS screening buffer; room temperature, 2 h; Del fixed 50 μg/mL, aptamer varied 50–500 nM; capture strand P displaced.

For assay [2] the test system is unchanged. Briefly: magnetic bead elution; AuNP/PDDA colorimetry. Conditions: 50 μg/mL (beads), 2 μg/mL (colorimetry, MOPS); elution much lower than Del; ΔA650/A520 about 0.4.

Regarding `CC1(C)[C@H](C(=O)O[C@H](C#N)c2cccc(Oc3ccccc3)c2)[C@@H]1C=C(Br)Br`, the Kd in assay [1] is given as 82.90 ± 6.272 nM.
For `CC1(C)C(C=C(Cl)Cl)C1C(=O)OC(C#N)c1cccc(Oc2ccccc2)c1` (stereo not drawn), the binding result in assay [2] is reported as “weak”.
Regarding `CC1(C)C(C(=O)OC(C#N)c2cccc(Oc3ccccc3)c2)C1(C)C` (stereo not drawn), in assay [2], the binding result is “weak”.
